Data reported in patent US9888679B2, “Protection of progenitor cells and regulation of their differentiation” (Proteobioactives Pty Ltd, priority 2007, dated 2018).

Tests used:
Type in all cases: cell-based
human progenitor cells [1] = assay: DNA synthesis (3H-Thymidine incorporation) in micromass cultures; details: FIG. 5
Method: FIG. 5. A bar graph of the concentration dependent effects of Pentosan Polysulfate (PPS) on DNA synthesis by human progenitor cells, as determined by the incorporation of ^3H-Thymidine into macromolecular DNA, after 4 day micromass cultures. *=p<0.05; **=p<0.005 relative to controls.
Ten μl of progenitor cells (7×10^6 cells/ml) were seeded into each well of a 24-well culture plate. After incubation at 37° C. in moist 5% CO2/95% air for 2-3 hours, 900 μl of DMEM-High medium (+10% FBS) and indicated concentrations PPS dissolved in DMEM-High medium were added slowly to the wells. The final PPS concentration were 0, 0.1, 0.5, 1.0, 2.5, 5.0, 10.0, 20.0 μg/ml, respectively. Every PPS concentration was established in triplicate. The cultures were allowed to proceed for 3 days. On day 4, to each well of the 24-well plate was added 640 μl of DMEM-High (+10% FBS), 80 μl of 10×PPS solution and 80 μl of 10 μCi/ml ^3H-Thymidine solution to produce a final ^3H-Thymidine concentration of […] and final PPS concentrations as indicated. The cultures were then incubated in 37° C., 5% CO2 for a further 22 hours, the medium was removed and 200 μl of 1 mg/ml Collagenase solution [Collagenase buffer: 66.7 mM NaCl, 6.7 mM KCl, 4.8 mM CaCl2.2H2O, 10 mM HEPES (pH7.4)] was added to each well. […] The radioactivity of ^3H incorporated into the DNA of proliferating cells was measured by scintillation counting.

human progenitor cells [2] = assay: Type II collagen immunostaining of micromass cultures, 10 days; details: FIG. 18
Method: FIG. 18. A: Bar graph showing the Pentosan Polysulfate (PPS) concentration dependent stimulation of type II collagen production by human progenitor cells in micromass cultures for 10 days as determined by scanning and digital analysis of the immuno stained micromass cultures shown in B. (see text for details).
Micromass cultures of progenitor cells were established in 24-well culture plates at a starting density of 8×10^4 cells/micromass in 1 ml of DMEM (+10% FBS) with/without various concentrations of Pentosan Polysulfate as described above. On Day-5 and Day-10 of culture, media was removed and cultures were fixed with Histochoice MB (Amresco, Solon, Ohio, USA) for 20-30 min at RT. The fixed cultures were washed twice in PBS (5 min each time); […] then washed in PBS for 5 min. […]. After rinsing, first with a gentle stream of PBS, followed by washing 3 times (5 min each time) with PBS, the wells were blocked with […] rinsing with a gentle stream of PBS then 3×washing (5 min each time) with PBS, to each micromass culture was added 200 μl of 1× (BCIP/Buffer+NBT) and the plates incubated in the reaction was stopped when the purple color first became established in the section by washing in running water. Plates and wells were then photographed with a digital camera and the images analysed by using Image J® software (http://rsb.info.nih.gov/ij/) on a personal computer.

[3] = test system: Human immunoselected Stro-1+ Progenitor cells; assay: Hyaluronan biosynthesis, 3H-glucosamine incorporation, Superdex-S200 before/after Hyalase, 9 day micromass
Text: FIG. 27. Chromatographic elution profiles showing the effects of polysulfated polysaccharides on the biosynthesis of Hyaluronan (HA) and by progenitor cells by measuring the incorporation of ^3H-glucosamine into HA. […] The % difference in areas under the profiles of the digested and pre-digested samples in the void volume fractions represents the amounts of ^3H-HA released into the media by the PPS concentration specified.
Human immunoselected Stro-1+ Progenitor cells (Mesoblast Ltd, Melbourne, Australia) were established in micromass cultures in 24 well plates using the method described above but seeding the progenitor cells at a density of 7×10^5 cells/well. After 24 hours in culture the media was changed and replaced with DMEM culture medium containing 10% FCS and 25 μg/ml gentamicin containing PPS (Bene-Arzneimittel, Munich, […]) which had been sterilised through a 0.22 μm filter. The cultures were incubated in 5% CO2/95% moist air at 37° C. for 8 days with media changes containing the indicated concentrations of PPS every 3 days. On the 8th day ^3H-glucosamine was added to culture medium containing the indicated concentrations of PPS to provide a solution containing 1.0 μCi/ml which was added to each well. The plates were incubated for a further 24 h. At termination of the cultures on day 9, media was collected into 5 ml capped tubes and stored at 4° C. prior to size exclusion chromatography as described below.
Two aliquots of 0.5 ml from each media sample were labelled A and B. 20 μl of 1 M acetic acid, pH 6.0 was added to all aliquots. 50 μl of reaction buffer (20 mM Na-acetate and 0.15 M NaCl, pH 6.0) was added to aliquot A and 50 μl of 5 TRU Streptomyces hyaluronidase (HYALASE) in reaction buffer was added to aliquot B. All samples were incubated at 60° C. for 3 h followed by boiling for 5 min to inactivate the added hyaluronidase. The samples were stored at −20° C. prior to gel filtration.
A Gel filtration column prepacked with Superdex-S200 was used to isolate and identify ^3H-HA and ^3H-PGs in culture media. Media samples were routinely centrifuged at high speed on a bench Microfuge for 10 min immediately before loading to the column. Samples (200 μl of each) were injected into the column through sample loop and the column was eluted with PBS buffer (0.15 M NaCl, 0.05 M Na2PO4, pH 7.2) at the flow rate of 0.2 ml/1 min. The column eluent was collected at 1.0 ml/fraction for total of 186 fractions and radioactivity was determined using a β-scintillation counter.

## pentosan polysulfate [PPS]
Human progenitor cells [1]; 1-5 micrograms/mL
  cell division (3H-Thymidine incorporation into DNA): Marked stimulation of cell division
Human progenitor cells [1]; all PPS concentrations (0.1-20 μg/ml)
  proliferation (3H-Thymidine incorporation into DNA): increased proliferation
Human progenitor cells [2]; 0.5-10 μg/ml, 10 days
  Type II Collagen production: Increased Type II Collagen production
Human progenitor cells [2]; 1-10 micrograms/mL for 10 days
  type II collagen staining: intense type II collagen staining
Human progenitor cells [2]; 10 day micromass
  concentration giving maximum type II collagen levels: 5 µg/mL
[3]; PPS 0.1 micrograms/mL (profile not shown)
  3H-glucosamine radioactivity incorporated into HA (media): 35.5%
[3]; PPS 0.1 micrograms/mL and 1.0 micrograms/mL only
  levels of newly synthesized 3H-HA in the culture media: substantial increases
[3]; PPS 1 microgram/mL, FIG. 27C
  3H-glucosamine radioactivity incorporated into HA (media): 49.6%
  radioactivity in post digestion void volume fractions of PG monomers: 50.4%
[3]; PPS 2.5 micrograms/mL
  3H-glucosamine incorporated into HA (media): about 11%
[3]; micromass cultures, media
  PPS concentration of maximum synthesis of HA: 1.0 micrograms/mL
[3]; micromass, FIG. 27
  biosynthesis of HA by cultured progenitor cells: stimulates the biosynthesis of HA
[3]; the lower concentration of PPS (FIG. 27B)
  3H-glucosamine radioactivity found in the HA fractions (media): 15.1%
